{"source": "patent US7608617B2", "about": "“Naphthaline derivatives as H3 inverse agonists” (Hoffmann-La Roche Inc., priority 2004, dated 2009)", "note": "Structures can show the parent of a compound that is named as a salt."}
{"molecular_target": "T1, histamine 3 receptor (H3R) (Homo sapiens, UniProt Q9Y5N1)", "T1 construct": "expressed in transfected cells; host or cells: CHO cells (HR3-CHO cell line), membranes", "T1 sequence (Q9Y5N1 whole entry)": "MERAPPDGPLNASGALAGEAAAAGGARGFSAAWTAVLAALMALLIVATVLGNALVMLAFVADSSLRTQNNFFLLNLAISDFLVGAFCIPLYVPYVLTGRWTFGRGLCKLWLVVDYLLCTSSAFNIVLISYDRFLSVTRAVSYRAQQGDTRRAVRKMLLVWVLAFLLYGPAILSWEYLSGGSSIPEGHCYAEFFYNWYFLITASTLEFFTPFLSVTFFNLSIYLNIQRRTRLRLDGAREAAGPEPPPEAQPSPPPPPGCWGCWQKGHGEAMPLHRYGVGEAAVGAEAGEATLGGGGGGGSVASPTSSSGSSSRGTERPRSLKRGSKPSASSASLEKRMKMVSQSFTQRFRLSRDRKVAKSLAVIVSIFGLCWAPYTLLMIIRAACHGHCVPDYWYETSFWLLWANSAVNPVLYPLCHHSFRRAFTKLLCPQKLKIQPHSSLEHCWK", "assay": "Binding assay with 3H-(R)α-methylhistamine (competition binding, membranes of the human HR3-CHO cell line)", "conditions": "competition with 3H(R)α-Methylhistamine 1 nM, Ki calculated from IC50 by Cheng-Prusoff equation", "description": "Binding assay with ^3H—(R)α-methylhistamine\nSaturation binding experiments were performed using HR3—CHO membranes prepared as described in Takahashi, K, Tokita, S., Kotani, H. (2003) J. Pharmacol. Exp. Therapeutics 307, 213-218.\nAn appropriate amount of membrane (60 to 80 μg protein/well) was incubated with increasing concentrations of ^3H(R)α-Methylhistamine di-hydrochloride (0.10 to 10 nM). Non specific binding was determined using a 200 fold excess of cold (R)α-Methylhistamine dihydrobromide (500 nM final concentration). The incubation was carried out at room temperature (in deep-well plates shaking for three hours). The final volume in each well was 250 μl. The incubation was followed by rapid filtration on GF/B filters (pre-soaked with 100 μl of 0.5% PEI in Tris 50 mM shaking at 200 rpm for two hours). The filtration was made using a cell-harvester and the filter plates were then washed five times with ice cold washing buffer containing 0.5 M NaCl. After harvesting, the plates were dried at 55° C. for 60 min, then we added scintillation fluid (Microscint 40, 40 microl in each well) and the amount of radioactivity on the filter was determined in Packard top-counter after shaking the plates for two hours at 200 rpm at room temperature.\nBinding Buffer: 50 mM Tris-HCl pH 7.4 and 5 mM MgCl2x 6H2O pH 7.4. Washing Buffer: 50 mM Tris-HCl pH 7.4 and 5 mM MgCl2×6H2O and 0.5 M NaCl pH 7.4:\nIndirect measurement of affinity of H3R inverse agonists: twelve increasing concentrations (ranging from […] to 0.3 nM) of the selected compounds were always tested in competition binding experiments using membrane of the human HR3-CHO cell line. An appropriate amount of protein, e.g. approximately 500 cpm binding of RAMH at Kd, were incubated for 1 hour at room temperature in 250 μl final volume in 96-well plates in presence of ^3H(R)α-Methylhistamine (1 nM final concentration=Kd). […]\nAll compounds were tested at a single concentration in duplicates. […] Ki's were calculated from IC50 based on Cheng-Prusoff equation (Cheng, Y, Prusoff, W H (1973) Biochem Pharmacol 22, 3099-3108).", "units": {"Ki": "nM"}}
{"smiles": "O=C(c1ccc2cc(OCCCN3CCCCC3)ccc2c1)N1CCCCC1", "note": "[Example 1, piperidin-1-yl-[6-(3-piperidin-1-yl-propoxy)-naphthalen-2-yl]-methanone 1:1 hydrochloride]", "Ki": 26}
{"smiles": "CC1CCCCN1CCCOc1ccc2cc(C(=O)N(C)Cc3ccccc3)ccc2c1", "note": "(stereo not drawn) [Example 13, 6-[3-(2-methyl-piperidin-1-yl)-propoxy]-naphthalene-2-carboxylic acid benzyl-methyl-amide 1:1 hydrochloride]", "Ki": 111}
{"smiles": "CC1CCN(C(=O)c2ccc3cc(OCCC4CCCN4C)ccc3c2)CC1", "note": "(stereo not drawn) [Example 31, (4-methyl-piperidin-1-yl)-{6-[2-(1-methyl-pyrrolidin-2-yl)-ethoxy]-naphthalen-2-yl}-methanone 1:1 hydrochloride]", "Ki": 571}
